{
  "source": "ChEMBL document CHEMBL6182945",
  "about": "“MMAE-Based Peptide-Drug Conjugates Targeting GPC3 for Precision Chemoradiotherapy in Hepatocellular Carcinoma” (J Med Chem, 2025)",
  "key": {"[1]": {"experiment": "Toxicity in female BALB/c mouse xenografted with human Huh-7 cells assessed as pathological change in kidney tissue at 1 mg/kg, iv followed by irradiated with 2 Gy for 2 consecutive days, once a week for 3 weeks measured on day 22", "assay_type": "organism-based", "conditions": "in vivo, 528 h, time 22 day"}, "[2]": {"experiment": "Toxicity in female BALB/c mouse xenografted with human Huh-7 cells assessed as body weight change at 1 mg/kg, iv followed by irradiated with 2 Gy for 2 consecutive days, once a week for 3 weeks measured on day 22", "assay_type": "organism-based", "conditions": "in vivo, 528 h, time 22 day"}, "[3]": {"experiment": "Plasma stability in human plasma assessed as compound remaining at 500 uM measured after 8 hrs by LC-MS/MS analysis relative to control", "assay_type": "ADME, cell-free", "conditions": "read-out: Stability"}, "[4]": {"experiment": "Toxicity in female BALB/c mouse xenografted with human Huh-7 cells assessed as pathological change in lung tissue at 1 mg/kg, iv followed by irradiated with 2 Gy for 2 consecutive days, once a week for 3 weeks measured on day 22", "assay_type": "organism-based", "conditions": "in vivo, 528 h, time 22 day"}, "[5]": {"experiment": "Toxicity in female BALB/c mouse xenografted with human Huh-7 cells assessed as pathological change in liver tissue at 1 mg/kg, iv followed by irradiated with 2 Gy for 2 consecutive days, once a week for 3 weeks measured on day 22", "assay_type": "organism-based", "conditions": "in vivo, 528 h, time 22 day"}, "[6]": {"experiment": "Toxicity in female BALB/c mouse xenografted with human Huh-7 cells assessed as pathological change in spleen tissue at 2 mg/kg, iv total 4 doses measured on day 17 by hematoxylin and eosin (H and E) staining analysis", "assay_type": "organism-based", "conditions": "in vivo, 408 h, time 17 day"}, "[7]": {"experiment": "Toxicity in female BALB/c mouse xenografted with human Huh-7 cells assessed as body weight change at 0.5 to 2 mg/kg, iv total 4 doses measured on day 17", "assay_type": "organism-based", "conditions": "in vivo, 408 h, dose 0.5-2 mg/kg, time 17 day"}, "[8]": {"test_system": "Hep 3B2", "experiment": "Antiproliferative activity against GPC3-positive human Hep3B cells assessed as cytotoxicity measured after 72 hrs by MTT assay", "assay_type": "functional, cell-based"}, "[9]": {"test_system": "HeLa", "experiment": "Antiproliferative activity against GPC3-negative human HeLa cells assessed as cytotoxicity measured after 72 hrs by MTT assay", "assay_type": "functional, cell-based"}, "[10]": {"experiment": "Plasma stability in mouse plasma assessed as half life at 500 uM by LC-MS/MS analysis", "assay_type": "ADME, cell-free"}, "[11]": {"experiment": "Toxicity in female BALB/c mouse xenografted with human Huh-7 cells assessed as pathological change in liver tissue at 2 mg/kg, iv total 4 doses measured on day 17 by hematoxylin and eosin (H and E) staining analysis", "assay_type": "organism-based", "conditions": "in vivo, 408 h, time 17 day"}, "[12]": {"experiment": "Toxicity in female BALB/c mouse xenografted with human Huh-7 cells assessed as pathological change in lung tissue at 2 mg/kg, iv total 4 doses measured on day 17 by hematoxylin and eosin (H and E) staining analysis", "assay_type": "organism-based", "conditions": "in vivo, 408 h, time 17 day"}, "[13]": {"experiment": "Toxicity in female BALB/c mouse xenografted with human Huh-7 cells assessed as pathological change in kidney tissue at 2 mg/kg, iv total 4 doses measured on day 17 by hematoxylin and eosin (H and E) staining analysis", "assay_type": "organism-based", "conditions": "in vivo, 408 h, time 17 day"}, "[14]": {"test_system": "LX-2", "experiment": "Antiproliferative activity against GPC3-negative human LX-2 cells assessed as cytotoxicity measured after 72 hrs by MTT assay", "assay_type": "functional, cell-based", "conditions": "LX-2, 72 h"}, "[15]": {"experiment": "Plasma stability in human plasma assessed as compound remaining at 500 uM measured after 48 hrs by LC-MS/MS analysis relative to control", "assay_type": "ADME, cell-free", "conditions": "read-out: Stability"}, "[16]": {"test_system": "Huh-7", "experiment": "Antiproliferative activity against GPC3-positive human Huh-7 cells assessed as cytotoxicity measured after 72 hrs by MTT assay", "assay_type": "functional, cell-based", "conditions": "Huh-7, 72 h"}, "[17]": {"experiment": "Stability in PBS at 500 uM measured up to 48 hrs by LC-MS/MS analysis", "assay_type": "physicochemical", "conditions": "buffer"}, "[18]": {"experiment": "Plasma stability in human plasma assessed as half life at 500 uM by LC-MS/MS analysis", "assay_type": "ADME, cell-free"}, "[19]": {"experiment": "Plasma stability in mouse plasma assessed as compound remaining at 500 uM measured after 8 hrs by LC-MS/MS analysis relative to control", "assay_type": "ADME, cell-free", "conditions": "read-out: Stability"}, "[20]": {"experiment": "Toxicity in female BALB/c mouse xenografted with human Huh-7 cells assessed as pathological change in heart tissue at 2 mg/kg, iv total 4 doses measured on day 17 by hematoxylin and eosin (H and E) staining analysis", "assay_type": "organism-based", "conditions": "in vivo, 408 h, time 17 day"}, "[21]": {"experiment": "Toxicity in female BALB/c mouse xenografted with human Huh-7 cells assessed as pathological change in spleen tissue at 1 mg/kg, iv followed by irradiated with 2 Gy for 2 consecutive days, once a week for 3 weeks measured on day 22", "assay_type": "organism-based", "conditions": "in vivo, 528 h, time 22 day"}, "[22]": {"molecular_target": "Cathepsin B (Homo sapiens, UniProt P07858)", "experiment": "Drug metabolism assessed as human cathepsin B-mediated monomethyl auristatin E release in HEK293 cells at pH 5.5 buffer measured after 30 mins by LC-MS/MS analysis", "assay_type": "ADME, cell-based", "conditions": "hek293, pH 5.5, 0.5 h"}, "[23]": {"experiment": "Toxicity in female BALB/c mouse xenografted with human Huh-7 cells assessed as pathological change in heart tissue at 1 mg/kg, iv followed by irradiated with 2 Gy for 2 consecutive days, once a week for 3 weeks measured on day 22", "assay_type": "organism-based", "conditions": "in vivo, 528 h, time 22 day"}},
  "data": [
    {"smiles": "CC[C@H](C)[C@@H]([C@@H](CC(=O)N1CCC[C@H]1[C@H](OC)[C@@H](C)C(=O)N[C@H](C)[C@@H](O)c1ccccc1)OC)N(C)C(=O)[C@@H](NC(=O)[C@H](C(C)C)N(C)C(=O)OCc1ccc(NC(=O)[C@H](CCCNC(N)=O)NC(=O)[C@@H](NC(=O)CCCCCN2C(=O)CC(SC[C@H](N)C(=O)N[C@@H](CO)C(=O)N[C@@H](CC(N)=O)C(=O)N[C@@H](CC(=O)O)C(=O)N[C@@H](CCCNC(=N)N)C(=O)N3CCC[C@H]3C(=O)N3CCC[C@H]3C(=O)N[C@@H](CC(N)=O)C(=O)N[C@H](C(=O)N[C@@H](CC(C)C)C(=O)N[C@@H](CCC(N)=O)C(=O)N[C@@H](CCCCN)C(=O)N[C@@H](CCCNC(=N)N)C(N)=O)[C@@H](C)CC)C2=O)C(C)C)cc1)C(C)C", "note": "(stereo partly drawn)", "values": [
      {"measurement": "Activity", "setting": "[1]", "value": "Non-toxic"},
      {"measurement": "Activity", "setting": "[2]", "value": "Non-toxic"},
      {"measurement": "remaining at 8 h, 500 µM", "setting": "[3]", "value": 57.2, "unit": "%"},
      {"measurement": "Activity", "setting": "[4]", "value": "Non-toxic"},
      {"measurement": "Activity", "setting": "[5]", "value": "Non-toxic"},
      {"measurement": "Activity", "setting": "[6]", "value": "Non-toxic"},
      {"measurement": "Activity", "setting": "[7]", "value": "Non-toxic"},
      {"measurement": "IC50", "setting": "[8]", "value": 12.2, "unit": "nM"},
      {"measurement": "IC50", "setting": "[9]", "value": "> 100", "unit": "nM"},
      {"measurement": "half-life at 500 µM", "setting": "[10]", "value": 4, "unit": "h"},
      {"measurement": "Activity", "setting": "[11]", "value": "Non-toxic"},
      {"measurement": "Activity", "setting": "[12]", "value": "Non-toxic"},
      {"measurement": "Activity", "setting": "[13]", "value": "Non-toxic"},
      {"measurement": "IC50", "setting": "[14]", "value": "> 100", "unit": "nM"},
      {"measurement": "remaining at 48 h, 500 µM", "setting": "[15]", "value": 25.3, "unit": "%"},
      {"measurement": "IC50", "setting": "[16]", "value": 1.91, "unit": "nM"},
      {"measurement": "Stability", "setting": "[17]", "value": "Stable"},
      {"measurement": "half-life at 500 µM", "setting": "[18]", "value": 8.8, "unit": "h"},
      {"measurement": "remaining at 8 h, 500 µM", "setting": "[19]", "value": 19.9, "unit": "%"},
      {"measurement": "Activity", "setting": "[20]", "value": "Non-toxic"},
      {"measurement": "Activity", "setting": "[21]", "value": "Non-toxic"},
      {"measurement": "Drug metabolism", "setting": "[22]", "value": "metabolite_detected"},
      {"measurement": "Activity", "setting": "[23]", "value": "Non-toxic"}
    ]}
  ]
}
